From ChEMBL document CHEMBL1201862, “PubChem BioAssay data set” (2004)
Several values for one entry are separate records, joined by “and”; a condition that tells them apart may be missing. Equal values may be shown once.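 Cultured in 96-well plates, cells were exposed to test compound for 48 hours across five concentrations. Here, GI50 denotes the concentration required for 50% inhibition of growth.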 Activity calls are given as the source filed them. No stated cut-off is given here; in the data, active = GI50 up to about 1.1 µM and inactive = higher.

Assays:
Test in all cases: NCI-60 cell line screen, 48 h
MDA-MB-231 = tested on: MDA-MB-231
SF-539 = tested on: SF-539
HCT-116 = tested on: HCT-116
SF-268 = tested on: SF-268
UACC-62 = tested on: UACC-62
RPMI-8226 = tested on: RPMI-8226
CCRF-CEM = tested on: CCRF-CEM
MCF7 = tested on: MCF7
SNB-75 = tested on: SNB-75
K562 = tested on: K562
PC-3 = tested on: PC-3
TK-10 = tested on: TK-10
SR = tested on: SR
786-0 = tested on: 786-0
RXF 393 = tested on: RXF 393
SK-MEL-28 = tested on: SK-MEL-28
KM12 = tested on: KM12
COLO 205 = tested on: COLO 205
U-251 = tested on: U-251
DU-145 = tested on: DU-145
UO-31 = tested on: UO-31
OVCAR-8 = tested on: OVCAR-8
OVCAR-5 = tested on: OVCAR-5
SN12C = tested on: SN12C
SK-MEL-5 = tested on: SK-MEL-5
OVCAR-4 = tested on: OVCAR-4
NCI-H23 = tested on: NCI-H23
NCI/ADR-RES = tested on: NCI/ADR-RES
SW-620 = tested on: SW-620
ACHN = tested on: ACHN
OVCAR-3 = tested on: OVCAR-3
MDA-N = tested on: MDA-N
LOX IMVI = tested on: LOX IMVI
UACC-257 = tested on: UACC-257
NCI-H522 = tested on: NCI-H522
HT-29 = tested on: HT-29
A549 = tested on: A549
SF-295 = tested on: SF-295
SK-MEL-2 = tested on: SK-MEL-2
SK-OV-3 = tested on: SK-OV-3
HOP-92 = tested on: HOP-92
HCT-15 = tested on: HCT-15
HCC 2998 = tested on: HCC 2998
MOLT-4 = tested on: MOLT-4
BT-549 = tested on: BT-549
HOP-62 = tested on: HOP-62
SNB-19 = tested on: SNB-19
MDA-MB-435 = tested on: MDA-MB-435
M14 = tested on: M14
EKVX = tested on: EKVX
IGROV-1 = tested on: IGROV-1
CAKI-1 = tested on: CAKI-1
NCI-H460 = tested on: NCI-H460
HL-60 = tested on: HL-60
Malme-3M = tested on: Malme-3M
A498 = tested on: A498
T47D = tested on: T47D

Measured: GI50

O=C(O)C1CCCCC1C(=O)Nn1cnnc1 (centres undefined)
inactive: MDA-MB-231 > 100 µM | SF-539 > 100 µM | HCT-116 > 100 µM | SF-268 > 100 µM | UACC-62 > 100 µM | RPMI-8226 > 100 µM | CCRF-CEM > 100 µM | MCF7 > 100 µM | SNB-75 > 100 µM | K562 > 100 µM | PC-3 > 100 µM | TK-10 > 100 µM | SR > 100 µM | 786-0 > 100 µM | RXF 393 > 100 µM | SK-MEL-28 > 100 µM | KM12 > 100 µM | COLO 205 > 100 µM | U-251 > 100 µM | DU-145 > 100 µM | UO-31 > 100 µM | OVCAR-8 > 100 µM | OVCAR-5 > 100 µM | SN12C > 100 µM | SK-MEL-5 > 100 µM | OVCAR-4 > 100 µM | NCI-H23 > 100 µM | NCI/ADR-RES > 100 µM | SW-620 > 100 µM | ACHN > 100 µM | OVCAR-3 > 100 µM | MDA-N > 100 µM | LOX IMVI > 100 µM | UACC-257 > 100 µM | NCI-H522 > 100 µM | HT-29 > 100 µM | A549 > 100 µM | SF-295 > 100 µM | SK-MEL-2 > 100 µM | SK-OV-3 > 100 µM | HOP-92 > 100 µM | HCC 2998 > 100 µM | MOLT-4 > 100 µM | BT-549 > 100 µM | HOP-62 > 100 µM | SNB-19 > 100 µM | MDA-MB-435 > 100 µM | M14 > 100 µM | EKVX > 100 µM | IGROV-1 > 100 µM
> 100 µM: HCT-15

O=c1[nH]nc(NNc2ccccc2)c2nnn(C3CCCCC3)c12
96.2 µM: HCT-15
inactive: MDA-MB-231 > 100 µM | HCT-116 > 100 µM | RPMI-8226 > 100 µM | CCRF-CEM > 100 µM | MCF7 > 100 µM | K562 > 100 µM | PC-3 > 100 µM | TK-10 > 100 µM | SR > 100 µM | SK-MEL-28 > 100 µM | KM12 > 100 µM | COLO 205 > 100 µM | U-251 > 100 µM | DU-145 > 100 µM | UO-31 > 100 µM | OVCAR-8 88.1 µM | OVCAR-5 > 100 µM | SN12C > 100 µM | SK-MEL-5 > 100 µM | CAKI-1 > 100 µM | OVCAR-4 > 100 µM | NCI-H23 > 100 µM | NCI-H460 77.6 µM | NCI/ADR-RES > 100 µM | ACHN > 100 µM | OVCAR-3 > 100 µM | MDA-N > 100 µM | LOX IMVI > 100 µM | UACC-257 > 100 µM | HT-29 > 100 µM | A549 > 100 µM | SF-295 > 100 µM | SK-MEL-2 > 100 µM | HL-60 > 100 µM | Malme-3M > 100 µM | HOP-92 > 100 µM | HCC 2998 > 100 µM | MOLT-4 > 100 µM | BT-549 > 100 µM | HOP-62 > 100 µM | SNB-19 > 100 µM | MDA-MB-435 > 100 µM | M14 > 100 µM | EKVX > 100 µM

O/N=C/C1C(OCc2ccccc2)C(OCc2ccccc2)C(OCc2ccccc2)CN1Cc1ccccc1 (centres undefined)
inactive: MDA-MB-231 4.15 µM | SF-539 7.26 µM | HCT-116 3.89 µM and 4.97 µM | SF-268 16.7 µM and > 10 µM | UACC-62 13.9 µM and 18.7 µM | RPMI-8226 22.6 µM | CCRF-CEM 3.37 µM and 3.65 µM | K562 3.82 µM and 4.53 µM | 786-0 8.99 µM and 5.94 µM | RXF 393 3.51 µM | SK-MEL-28 14.3 µM and 15.2 µM | U-251 9.16 µM and 15.5 µM | DU-145 35.2 µM and 60.4 µM | OVCAR-8 16 µM and 13.1 µM | SK-MEL-5 11.7 µM | CAKI-1 2.74 µM | OVCAR-4 6.41 µM | SW-620 5.41 µM and 10.2 µM | MDA-N 16 µM and 12.4 µM | LOX IMVI 10.6 µM and 6 µM | NCI-H522 9.55 µM | A549 4.44 µM and 7.87 µM | SF-295 6.15 µM and 10.7 µM | SK-MEL-2 19.6 µM | HL-60 13.1 µM | HCC 2998 7.48 µM | MOLT-4 2.77 µM and 1.52 µM | A498 5.2 µM | BT-549 15.3 µM | T47D 5.26 µM | SNB-19 29.4 µM and 38.8 µM | EKVX 41.2 µM | IGROV-1 22.1 µM and 34 µM
